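Five concentrations, 48 hours, 96-well plates. GI50 = concentration required for 50% inhibition of growth. TGI marks complete inhibition of growth.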
Experiments:
Experiment in all cases: DTP human tumour cell line panel, 48 h
786-0 renal = system: 786-0 renal
CAKI-1 renal = system: CAKI-1 renal
EKVX NSCLC = system: EKVX NSCLC
HOP-92 NSCLC = system: HOP-92 NSCLC
LOX IMVI melanoma = system: LOX IMVI melanoma
OVCAR-5 ovarian = system: OVCAR-5 ovarian
SK-MEL-28 melanoma = system: SK-MEL-28 melanoma
SK-OV-3 ovarian = system: SK-OV-3 ovarian
SR leukemia = system: SR leukemia
HCC-2998 colon = system: HCC-2998 colon

Row | SMILES | TGI (786-0 renal) | TGI (CAKI-1 renal) | TGI (EKVX NSCLC) | TGI (HOP-92 NSCLC) | TGI (LOX IMVI melanoma) | TGI (OVCAR-5 ovarian) | TGI (SK-MEL-28 melanoma) | TGI (SK-OV-3 ovarian) | TGI (SR leukemia) | TGI (HCC-2998 colon) | GI50 (786-0 renal) | GI50 (CAKI-1 renal) | GI50 (EKVX NSCLC) | GI50 (HCC-2998 colon) | GI50 (HOP-92 NSCLC) | GI50 (LOX IMVI melanoma) | GI50 (OVCAR-5 ovarian) | GI50 (SK-MEL-28 melanoma) | GI50 (SK-OV-3 ovarian) | GI50 (SR leukemia)
1 | O=C(O)c1c[nH]c2c(ccc3[nH]cc(C(=O)O)c(=O)c32)c1=O | > 100 µM | > 100 µM | > 100 µM | > 100 µM | > 100 µM | > 100 µM | > 100 µM | > 100 µM | > 100 µM |  |  |  |  |  |  |  |  |  |  | 
2 | O=C(O)C1C2CCC(O2)C1C(=O)NCc1cccnc1 (stereo not drawn) | > 100 µM | > 100 µM | > 100 µM |  | > 100 µM | > 100 µM | > 100 µM | > 100 µM | > 100 µM |  |  |  |  |  |  |  |  |  |  | 
3 | Cc1cc2c(C)nn(Cc3ccccc3Cl)c2c(C#N)c1C | > 100 µM |  | > 100 µM | > 100 µM | > 100 µM | > 100 µM | > 100 µM | > 100 µM | > 100 µM | > 100 µM |  |  |  |  |  |  |  |  |  | 
4 | Cn1cc(-c2ccc3nnc(C(F)(F)c4ccc5ncccc5c4)n3n2)cn1 | > 100 µM | > 100 µM | > 100 µM | > 88.9 µM | > 100 µM | > 100 µM | > 100 µM | > 100 µM |  | > 100 µM | 46 µM | 31.4 µM | > 83.3 µM | > 100 µM | 10.6 µM | 55.5 µM | 71.9 µM | > 85.8 µM | > 86.4 µM | 
5 | C=C1CCC2(C(C)=O)COC1(C)O2 (stereo not drawn) | > 100 µM |  | > 100 µM |  | > 100 µM |  | > 100 µM | > 100 µM |  |  |  |  |  |  |  |  |  |  |  | 
6 | C1C[S][Ge]2([S]CCS1)[S]CCSCC[S]2 | > 100 µM | > 100 µM |  | > 100 µM |  |  | > 100 µM | > 100 µM | > 100 µM | > 100 µM | > 100 µM | > 100 µM |  | > 100 µM | > 100 µM |  |  | > 100 µM | > 100 µM | > 100 µM
7 | COc1cc(/C=C2\CC3C4CCC5=CC(=O)CC[C@]5(C)C4CC[C@]3(C)C2=O)ccc1OCCN1CCCCC1 (stereo partly drawn) | 4.21 µM | 5.89 µM | 21.8 µM | 8.34 µM | 3.3 µM | 28.5 µM | 6.13 µM | 48.7 µM |  | 12.5 µM | 1.92 µM | 2.29 µM | 6.3 µM | 3.26 µM | 1.45 µM | 1.42 µM | 8.26 µM | 2.59 µM | 20.5 µM | 
8 | Cc1cc(C)c(C2=NO[C@@H]3C(=O)N(c4ccc(Cc5ccc(N6C(=O)[C@H]7C(c8c(C)cc(C)cc8C)=NO[C@H]7C6=O)cc5)cc4)C(=O)[C@H]23)c(C)c1 | > 100 µM | > 100 µM | > 100 µM | > 100 µM | > 100 µM | > 100 µM | > 100 µM | > 100 µM |  | > 100 µM |  |  |  |  |  |  |  |  |  | 
9 | CCOC(=O)CP(=S)(S)c1ccccc1 (stereo not drawn) | > 100 µM | > 100 µM | > 100 µM | > 100 µM | > 100 µM | > 100 µM | > 100 µM | > 100 µM | > 100 µM |  |  |  |  |  |  |  |  |  |  | 
10 | CSc1nc(SC)c2c(C)cn(C3OC(C)C(O)C(O)C3O)c2n1 (stereo not drawn) | > 100 µM |  | > 100 µM | 83.4 µM | > 100 µM | > 100 µM | > 100 µM | > 100 µM | > 100 µM | > 100 µM |  |  |  |  |  |  |  |  |  | 
11 | CN(CCCCN)c1ccc2c(=O)[nH][nH]c(=O)c2c1 | > 100 µM | > 100 µM | > 100 µM | > 100 µM | > 100 µM | > 100 µM | > 100 µM | > 100 µM |  | > 100 µM |  |  |  |  |  |  |  |  |  | 
12 | CN1c2ccccc2S(=O)(=O)n2c(COc3ccccc3)nnc21 | > 100 µM | > 100 µM | > 100 µM | > 100 µM | > 100 µM | > 100 µM | > 100 µM | > 100 µM |  | > 100 µM |  |  |  |  |  |  |  |  |  | 
13 | Cc1cc(C)c(C(=O)/C(=C/c2ccccc2)c2ccccc2)c(C)c1 | > 100 µM | > 100 µM | > 100 µM | > 100 µM |  |  | > 100 µM | > 100 µM | > 100 µM |  |  |  |  |  |  |  |  |  |  | 
14 | O=c1sc(-c2nc3ccccc3[nH]2)c(/N=C/c2ccccc2)n1-c1ccccc1 | > 100 µM | > 100 µM | > 100 µM |  | > 100 µM | > 100 µM | > 100 µM | 89.1 µM |  | > 100 µM |  |  |  |  |  |  |  |  |  | 
15 | CN(CC1NCCCC1O)C12CC3CC(CC(C3)C1)C2 (stereo not drawn) | > 100 µM | > 100 µM | > 100 µM | > 100 µM | > 100 µM | > 100 µM |  | > 100 µM |  | > 100 µM |  |  |  |  |  |  |  |  |  | 
16 | CC(C)OC(=O)c1cccnc1/C=N/O | > 100 µM | > 100 µM | > 100 µM |  | > 100 µM | > 100 µM |  | > 100 µM |  | > 100 µM |  |  |  |  |  |  |  |  |  | 
17 | c1ccc(N2N=NC3C4CC(C5c6ccccc6C45)C32)cc1 (stereo not drawn) | > 100 µM | > 100 µM | > 100 µM | 54.6 µM | 39.6 µM | > 100 µM |  | > 100 µM | > 100 µM |  |  |  |  |  |  |  |  |  |  | 
18 | COc1cc(OC)c(/C=C/C(=O)c2c(O)cc(OC)c(C3CCN(C)CC3)c2OC)c(OC)c1 | 2.72 µM | 2.93 µM | 2.48 µM |  |  | 2.84 µM |  |  |  | 2.82 µM | 1.42 µM | 1.51 µM | 1.12 µM | 1.46 µM |  |  | 1.48 µM |  |  | 
19 | CC(C)(N)C(=O)N[C@@H]1C(=O)N2[C@@H]1SC(C)(C)[C@@H]2C(=O)O | > 100 µM | > 100 µM | > 100 µM | > 100 µM | > 100 µM | > 100 µM | > 100 µM | > 100 µM | > 100 µM |  |  |  |  |  |  |  |  |  |  | 
20 | c1cnc2nc3n(c2c1)CSC3 | > 100 µM | > 100 µM | > 100 µM | > 100 µM | > 100 µM | > 100 µM | > 100 µM | > 100 µM |  | > 100 µM |  |  |  |  |  |  |  |  |  | 
21 | NCCCCCCCCCn1c2c(c3ccccc3c1=O)C(=O)c1ccccc1-2 | 15.9 µM | 18.8 µM | 17.3 µM | 21.1 µM | 23.6 µM | 19.5 µM | 23 µM | 18.7 µM | > 50 µM |  | 7.72 µM | 9.15 µM | 9.16 µM |  | 10.1 µM | 7.38 µM | 9.6 µM | 9.98 µM | 10.1 µM | 1.55 µM
22 | O=Cc1cn(S(=O)(=O)c2ccccc2)c2ccccc12 | > 100 µM |  | > 100 µM |  | 43.8 µM | > 100 µM | > 100 µM | > 100 µM | 67.1 µM | > 100 µM |  |  |  |  |  |  |  |  |  | 
